Data as given in US20190351012A1, “TARGETING OF INTERFERON-STIMULATED GENE EXPRESSION TO TREAT INTERFERONOPATHIES” (New York University, priority 2018, published 2019).

Key:
[1] = system: ISG54 promoter and G6TI control templates; experiment: In vitro transcription run-off assay with nuclear extracts and recombinant ISGF3; format: biochemical, human; details: TSA included in run-off reaction, naked DNA templates
Excerpt: (§1) FIG. 2. […] (A) Nuclear extracts from HEK293T cells expressing activated recombinant ISGF3 (STAT1, STAT2, IRF9 and JAK1) or transfected with vector (Ctl) were programmed with G6TI-CAT (G6TI) or p107 (ISG54) templates. Radiolabeled RNA transcripts were resolved by polyacrylamide-urea gel electrophoresis. Arrow and arrowhead indicate position of the transcripts from G6TI-CAT and p107, respectively. (B) HeLa cells were either left untreated or treated with IFN-α in the absence or presence of TSA (TSA in vivo) before nuclei were isolated for run-on transcription. Where indicated, TSA was added to the elongation reaction in vitro (TSA in vitro). Specific signals from γ-actin, ISG15, ISG56, 6-16, 9-27, IRF9 and GBP transcription were quantified following filter hybridization and normalized to the signal for GAPDH, arbitrarily set to 100. Representative data from three independent experiments are shown. FS2 human diploid fibroblasts were starved for 72 h before being treated with IFN-α for 7.5 h in the absence or presence of TSA. Mononucleosomal DNA fraction was purified from MNase-digested nuclei and analyzed for nucleosome positions by PCR quantitation of protected fragments. All samples were quantified by real-time PCR, except the—53—+1 ISG54 fragment, which was quantified by gel electrophoresis (C). […]

[2] = system: ISG transcription in HeLa cell nuclei; experiment: Run-on nuclear transcription in HeLa nuclei; format: cell-based, human
Excerpt: as §1, with “Representative data from three independent experiments are shown. FS2 human diploid fibroblasts were starved for 72 h before being treated with IFN-α for 7.5 h in the absence or presence of TSA.” left out
Run-off transcription is largely a measure of transcriptional […]. […] Nuclei were isolated from cells untreated or treated with IFNα, pulse-labeled in vitro with radioactive nucleotides, and specific transcriptional elongation was quantified by filter hybridization (FIG. 2B). […]

CC(/C=C/C(=O)NO)=C\[C@@H](C)C(=O)c1ccc(N(C)C)cc1 [TSA, Trichostatin A]
inhibition of basal and ISGF3-dependent transcription in vitro [1]: neither basal nor ISGF3-dependent transcription was inhibited
housekeeping and ISG transcription in nuclear run-on ([2]; TSA added to the in vitro run-on reaction): failed to affect
ISG transcription in isolated nuclei ([2]; cells stimulated with IFN in the presence of TSA (TSA in vivo)): impaired
